Data reported in US7507859B2, “Functional synthetic molecules and macromolecules for gene delivery” (Fifth Base LLC, priority 2003, dated 2009).

Experiments:
Gel formation in DMSO = format: physicochemical; settings: sonication (30 sec) or heating to 60 C for 5 minutes and cooling to room temperature
Procedure: The gels can be produced by either 1) sonication (30 sec) or by heating the suspensions to 60 C for 5 minutes and cooling to room temperature.

DNA [1] = experiment: Ethidium bromide-DNA fluorescence quenching exclusion assay; format: binding; settings: 2 mM HEPES, 150 mM NaCl, 10 μm EDTA, pH 7.4; 60 minutes incubation; triplicate
Procedure: Exclusion assay (adapted from; A. J. Geall, I. S. Blagbrough, Journal of Pharmaceutical and Biomedical Analysis 22 (2000) 849-859)
(§1) Five μg (5 μl of 1 mg/mL solution) of DNA and varying amount of amphiphiles (dependent on the Amphiphile/DNA ratio required) were diluted to 1000 μL with buffer (2 mM HEPES, 150 mM NaCl, 10 μm EDTA, pH 7.4). The solutions were mixed on a bench top vortex and incubated for 60 minutes at ambient temperature. Each solution was then diluted to 3 mL with buffer (2 mM HEPES, 150 mM NaCl, 10 μm EDTA, pH 7.4). Immediately prior to the analysis, 3 μL of Eth Br solution (0.6 mg/ml, 1.3 mM, effectively present in excess) was added, the sample was mixed on a bench top vortex, and the fluorescence measured. The fluorescence was expressed as the percentage of the maximum fluorescence signal when EthBr was bound to the DNA in the absence of amphiphile. Assays were run in triplicate. […] Compound 30a bound DNA and displaced EthBr.

DNA [2] = experiment: Exclusion assay after addition of an esterase (DNA release); format: biochemical; settings: esterase added to the amphiphile-DNA solution; EthBr intercalates again
Procedure: as §1

[3] = tested on: chinese hamster ovary (CHO) cells; experiment: B-galactosidase transfection assay; format: cell-based; settings: varying concentrations of lipid and DNA, triplicate, 96 well plates, chemiluminescent reporter
Procedure: Transfection assays were performed using the well established B-galactosidase transfection assay. In these experiments the B-galactosidase gene is transfected into cells. Next, the expressed enzyme then cleaves a chemiluminescent reporter that is detected. The assays are conducted with chinese hamster ovary (CHO) cells following a standard lipid transfection procedure. The procedure is performed on varying concentrations of lipid and DNA in triplicate in 96 well plates.

Compound	Gel formation in DMSO (Gel formation in DMSO)	DNA binding and displacement of EtBr (DNA [1])	DNA release from the amphiphile after esterase cleavage of the ester linkages (DNA [2])	Transfection of the B-galactosidase gene [3]
CCCCCCCCCCCCCCCC(=O)O[C@@H]1[C@H](OC(=O)CCCCCCCCCCCCCCC)[C@@H](CO)O[C@H]1n1ccc(=O)[nH]c1=O [2′,3′dipalmitoyl uridine, 2′,3′palmitoyl uridine]	form gels in DMSO			
C[N+](C)(C)CC(COC(=O)NCCCCCCCCCCCC(=O)OCC1CC(=O)Oc2cc(O)c(Br)cc21)OC(=O)NCCCCCCCCCCCC(=O)OCC1CC(=O)Oc2cc(O)c(Br)cc21.[I-] (stereo not shown) [Compound 26, {2,3-Bis-[11-(6-bromo-7-hydroxy-2-oxo-chroman-4-ylmethoxycarbonyl)-undecylcarbamoyloxy]-propyl}-trimethyl-ammonium iodide]		bound DNA and displaced EtBr		
C[N+](C)(C)CC(COC(=O)CCCCCCCCCCC(=O)OCc1ccccc1)OC(=O)CCCCCCCCCCC(=O)OCc1ccccc1.[I-] (stereo not shown) [Compound 30a, [2,3-Bis-(11-benzyloxycarbonyl-undecanoyloxy)-propyl]-trimethyl-ammonium; iodide]		bound DNA and displaced EtBr	releasing the DNA from the amphiphile	transfected the B-galactosidase gene
C[N+](C)(C)CC(COC(=O)CCCCCCCCCCC(=O)OCc1ccccc1[N+](=O)[O-])OC(=O)CCCCCCCCCCC(=O)OCc1ccccc1[N+](=O)[O-].[I-] (stereo not shown) [Compound 30b, {2,3-Bis-[11-(2-nitro-benzyloxycarbonyl)-undecanoyloxy]-propyl}-trimethyl-ammonium; iodide]		bound DNA and displaced EtBr		
CC(C)(C)OC(=O)CCCCCCCCCCC(=O)OCC(C[N+](C)(C)C)OC(=O)CCCCCCCCCCC(=O)OC(C)(C)C.[I-] (stereo not shown) [Compound 34, [2,3-Bis-(11-tert-butoxycarbonyl-undecanoyloxy)-propyl]-trimethyl-ammonium; iodide]		bound DNA and displaced EtBr	releasing the DNA from the amphiphile	
C[N+](C)(C)CC(COC(=O)CCCCCCCCCCC(=O)O)OC(=O)CCCCCCCCCCC(=O)O.[I-] (stereo not shown) [Compound 35, [2,3-Bis-(11-carboxy-undecanoyloxy)-propyl]-trimethyl-ammonium; iodide]		did not bind DNA and displace EthBr		minimal transfection activity
CC(=O)OCC(C[N+](C)(C)C)OC(C)=O.[I-] (stereo not shown) [Compound 36, (2,3-Diacetoxy-propyl)-trimethyl-ammonium; iodide]		did not bind DNA and displace EthBr		minimal transfection activity
C[N+](C)(C)CC(COC(=O)CCCCCCCCCCCOCc1ccccc1)OC(=O)CCCCCCCCCCCOCc1ccccc1.[I-] (stereo not shown) [Compound 40, [2,3-Bis-(12-benzyloxy-dodecanoyloxy)-propyl]-trimethyl-ammonium; iodide]				transfected the B-galactosidase gene
CCCCCCCCCCCCCC(=O)OCC(COC(=O)CCCCCCCCCCCCC)OC(=O)CCC(=O)OCC(COC(=O)CCC(=O)OC(COC(=O)CCCCCCCCCCCCC)COC(=O)CCCCCCCCCCCCC)OC(=O)CCC(=O)OC(COC(=O)CCC(=O)OCC[N+](C)(C)C)COC(=O)CCC(=O)OCC[N+](C)(C)C [Compound 85]		bound DNA and displaced EtBr		
Trimethylamino-[G0]-PGLSA dendrimer iodide [Compound 44]		bound DNA and displaced EtBr		
Trimethylamino-[G1]-PGLSA dendrimer iodide [Compound 47]		bound DNA and displaced EtBr		
